Assay results taken from patent US8518412B2, “Partial peptide of lacritin” (Senju Pharmaceutical Co, Ltd., priority 2009, dated 2013).
Non-standard residues stand in square brackets, D forms with d. No end group written: not given here. pGlu = O=C1CC[C@@H](C(=O)O)N1

Test system: human corneal epithelial cells (HCE-T)
Test: Adhesion of human corneal epithelial cell to extracellular matrix (collagen type IV coated plate)
Type: cell-based
Settings: polypeptide 100 μg/mL, 37° C. 25 min
Method: An extracellular matrix solution (10 μg/mL, collagen type IV: Becton, Dickinson and Company, catalog No. 354245) was added to a 96 well plate (Iwaki Glass Company, Limited, catalog No. 3860-096). The solution was incubated at 37° C. for 1 hr to coat the plate with the extracellular matrix. After the redundant extracellular matrix solution was removed, 0.1% BSA solution (Sigma-Aldrich Co., catalog No. A3803) was added to block the region not coated with the extracellular matrix. Successively, the BSA solution was removed and the plate was washed twice with PBS, and polypeptides 1-4 (concentration 100 μg/mL) synthesized in Example 1 (Pyr Lac50-83) and Comparative Examples 1-3 (Lac50-83, Pyr Lac50-94, Lac50-94), and negative control polypeptide (Lac24-56, Lac50-65) were added by 50 μl, per well. […]
Thereafter, the cells were fixed with 10% neutral buffered formaldehyde liquid (NACALAI TESQUE, INC., catalog No. 37152-51), and stained with 1% crystal violet staining solution (Sigma-Aldrich Co., catalog No. C3886). The image of the stained cells was uploaded using an inverted system microscope (Olympus Corporation, IX71), and the area of the adhered cells was measured using Image-Pro Plus Ver. […]

Row | Substance | cell adhesion promoting effect (cell adhesion rate against that without addition of polypeptide as 100%)
1 | Pyr Gly Thr Ala Lys Val Thr Ser Ser Arg Gln Glu Leu Asn Pro Leu Lys Ser Ile Val Glu Lys Ser Ile Leu Leu Thr Glu Gln Ala Leu Ala Lys Ala ([pGlu]GTAKVTSSRQELNPLKSIVEKSILLTEQALAKA; listed as Homo sapiens) [polypeptide 1, pyro-modified partial peptide of lacritin] | confirmed to have an activity to promote cell adhesion
2 | Pyr Gly Thr Ala Lys Val Thr Ser Ser Arg Gln Glu Leu Asn Pro Leu Lys Ser Ile Val Glu Lys Ser Ile Leu Leu Thr Glu Gln Ala Leu Ala Lys Ala Gly Lys Gly Met His Gly Gly Val Pro Gly Gly ([pGlu]GTAKVTSSRQELNPLKSIVEKSILLTEQALAKAGKGMHGGVPGG; listed as Homo sapiens) [polypeptide 3] | lowered activity as compared to that of polypeptide before pyro-modification
